# Patent US20220017468A1, “ISOQUINOLINE COMPOUNDS AND THEIR USE IN TREATING AhR IMBALANCE” (Dermavant Sciences GmbH, priority 2020, published 2022)
# Tests used:
# [1] = biological target: T1, AhR (Homo sapiens, UniProt P35869); assay: CYP1A1-bla LS-180 AhR antagonist assay; assay type: cell-based; conditions: competition of FICZ- or TCDD-induced AhR activation
# T1 construct: LS-180 cells stably transfected with a CYP1A1 promoter-linked beta-lactamase gene reporter construct; endogenous in cells; host or cells: CYP1A1-bla LS-180 cells
# T1 sequence (P35869 11-848): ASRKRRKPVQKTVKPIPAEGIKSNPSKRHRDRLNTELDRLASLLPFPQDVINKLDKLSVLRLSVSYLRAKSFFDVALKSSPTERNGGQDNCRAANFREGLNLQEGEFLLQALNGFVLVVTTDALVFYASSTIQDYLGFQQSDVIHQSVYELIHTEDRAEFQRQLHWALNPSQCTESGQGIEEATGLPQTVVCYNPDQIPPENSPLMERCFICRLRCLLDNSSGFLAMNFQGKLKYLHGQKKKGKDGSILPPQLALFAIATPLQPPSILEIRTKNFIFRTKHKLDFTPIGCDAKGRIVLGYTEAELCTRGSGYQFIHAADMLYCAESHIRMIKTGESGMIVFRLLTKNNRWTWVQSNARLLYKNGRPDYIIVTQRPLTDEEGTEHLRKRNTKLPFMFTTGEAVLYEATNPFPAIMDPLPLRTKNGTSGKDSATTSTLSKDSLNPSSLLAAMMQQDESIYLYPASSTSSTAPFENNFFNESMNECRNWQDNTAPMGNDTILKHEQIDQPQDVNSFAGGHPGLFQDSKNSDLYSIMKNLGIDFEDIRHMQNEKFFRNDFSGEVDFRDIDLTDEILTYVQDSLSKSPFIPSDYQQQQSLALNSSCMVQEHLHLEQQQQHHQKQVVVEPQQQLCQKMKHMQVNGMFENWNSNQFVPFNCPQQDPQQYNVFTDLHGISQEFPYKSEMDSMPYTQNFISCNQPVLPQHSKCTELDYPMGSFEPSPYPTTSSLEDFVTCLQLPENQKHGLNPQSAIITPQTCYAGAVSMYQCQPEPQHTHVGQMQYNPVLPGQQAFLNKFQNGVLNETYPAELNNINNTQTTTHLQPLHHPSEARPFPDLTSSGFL
# Protocol: A similar assay was used to evaluate the antagonist capacity of compounds. CYP1A1-bla LS-180 cells in exponential growth phase were washed twice with DPBS then seeded into 96-well microplates (50,000 cells/well) and allowed to adhere. Either FICZ or TCDD was added as an agonist and prepared compounds (2× working concentrations in complete media) were added 2 hours later. Cells were incubated for ˜20 hrs, after which compounds were tested for their ability to compete FICZ- or TCDD-induced AhR activation as a means to evaluate potential allosteric or partial agonist activity. The LiveBLAzer FRET B/G β-lactamase substrate was added in the final hour of incubation and resulting blue/green fluorescence was measured using a 96-well microplate reader, as described above.
# [2] = estimation of human plasma concentration following topical administration; conditions: for Estimated AUC24 h / Estimated Css: 70 kg
# Protocol: The plasma clearance (CLhuman) was estimated from the in vitro and preclinical pharmacokinetic studies.
# An estimated skin flux prediction was conducted, assuming a 2-hour lag time and receiving fluid levels obtained every two hours at the LLOQ level for 16 hours, leading to a calculated flux of 0.048 ng/cm^2/h.
# Healthy skin is an effective protective barrier to most xenobiotics; therefore the relevance of a flux value derived from the ex vivo skin penetration assay, which uses healthy human skin from abdominoplasty surgeries, may not translate to what is observed following application onto unhealthy skin. […] Calculation of human systemic exposure with a 100-fold increase in flux has also been performed to account for the worst case estimation. A 10% body surface area (1800 cm^2) in human was used for this estimation. Therefore, for the purpose of safety margin estimation and considering the conditions explained herein, the estimated Css,human is 0.34 ng/mL with the corresponding AUCss, 24 h is 8.2 ng*h/mL. In clinical practice, topical treatment for atopical dermatitis can be up to 50% BSA (9000 cm2) and therefore corresponding estimated Css,human and AUCss, 24 h with 10-fold increase in flux is 0.17 ng/mL and 4.1 ng*h/mL.
# [3] = tested on: dinitrofluorobenzene (DNFB)-challenged mouse; assay: DNFB mouse model; assay type: in vivo; conditions: 0.3% in ethanolic formulation, twice daily
# From the text: DNFB is a small chemical hapten that induces a delayed-type hypersensitivity reaction with some similarity to human atopic dermatitis. […] This may indicate reduced exposure to the compound in the second study, although additional data would be required to understand whether this discrepancy results from different dosing strategies (q.d. vs b.i.d.), limitations of cream formulation 1, or another reason.
# Healthy female CD1 mice (Crl:CD1(ICR)) were shaved on the abdomen and the nape of the neck under a 3 to 5% isoflurane anesthesia.
# After body weight measurement, animals were allocated to study groups, according to the treatment table below. The study was divided in two arms, separated by 1 week, in order to accommodate for the in life monitoring of scratching monitoring. Half of the animals from each group (6 mice) were allocated in arm 1 and arm 2 respectively.
# For each topical treatment, 100 mg of cream or 100 μL of liquid formulation were applied on the mouse nape of the neck skin using a solvent pipette. When creams were used, they were spread with a finger and allowed to penetrate the skin by massage until complete absorption. […]
# Mice were culled on Day 17 under a 3 to 5% isoflurane anesthesia, 4 hours after the last topical treatment, and 48 hours after the last DNFB or acetone/olive oil challenge. […] Epidermal (FIG. 6C1) and dermal thickness (FIG. 6C2) were measured.
# [4] = flux 0.48 (10-fold increase), dose area 9000 cm^2, clearance 6 ml/min/kg
# [5] = flux 4.8 (100-fold increase), dose area 1800 cm^2, clearance 6 ml/min/kg
smiles,measurement,setting,value
CC(C)c1c(O)cc(-c2cc3ccccc3cn2)cc1O,AhR antagonist assay result,[1],negative
same,lowest predicted human clearance,[2]; allometric scaling with plasma protein binding correction,6 mL/min/kg
same,Topical Skin Flux (calculated),[2]; assuming 2-hour lag time and receiving fluid levels at the LLOQ for 16 hours,0.048 ng/cm^2/h
same,Estimated AUC24 h,[2]; [4],4.1 ng·h/mL
same,Estimated Css,[2]; [4],0.17 ng/mL
same,Estimated AUC24 h,[2]; [5],8.2 ng·h/mL
same,Estimated Css,[2]; [5],0.34 ng/mL
same,reduction in dermal thickness,[3],34%
same,reduction in epidermal thickness,[3],20%
